Data as given in US9637516B2, “Betulinic acid proline derivatives as HIV inhibitors” (HETERO RESEARCH FOUNDATION, priority 2012, dated 2017).

Tests used:
[1] = Single dose oral pharmacokinetic study; format: in vivo, mice; conditions: mouse, plasma
Procedure: The test item was administered through oral route to animals (rat/mice) at 30 mg/kg dose in a suitable vehicle at 10 ml/kg dose volume. Blood samples (˜50 uL at each time point) were collected from retro-orbital plexus using K3 EDTA as anticoagulant in eppendorf tubes at defined time intervals under light ether anesthesia. The samples were centrifuged at 3500×g to separate plasma and stored at −80° C. until analysis.
Sample analysis: Test samples were analyzed using LC-MS-MS after developing fit-for-purpose method for each of test compound.

HIV-1 strain 92HT599 = experiment: Antiviral activity: p24 estimation in MT2 cells infected with HIV-1 strain 92HT599; format: cell-based; conditions: for inhibition at 0.1 µM: Human immunodeficiency virus 1, 100 nM; for inhibition at 0.1 µM / inhibition at 1 µM: HIV-1 92HT599, p24, ~96 hours; for inhibition at 1 µM: Human immunodeficiency virus 1, 1000 nM; for IC50: Human immunodeficiency virus 1, HIV-1 92HT599, p24
Procedure: MT2 cells were infected with HIV-1 strain 92HT599 (10 TCID 50/30000 cells). The infected cells were plated at the concentration of ˜30 000 cells per well in 96 well plate. Test compound was added to the micro plate in defined format with the final concentration of DMSO (vehicle) is not more than 1%. Incubation was carried out in CO2 incubator for ˜96 hours for viral infection. At the end of incubation period an aliquot from each well was taken for p24 estimation. The quantitation of p24 is an index for antiviral activity of the compound. Percent inhibition was calculated with reference to control values (vehicle controls). p-24 estimation was carried out using Advance biosciences kit as per the procedure detailed by supplier.

MT2 cells = experiment: in vitro; format: cell-based; conditions: human, 1 µM
Procedure: (§1) For cyto-toxicity assay the same amount of MT2 cells as in antiviral assay without virus was added to the 96 well plates. The cyto-toxicity was measured using MTT reagent in parallel with p24 estimation. The percent viability is calculated in comparison with vehicle control.

in vitro = format: cell-based; conditions: human, Cytotoxicity % viability
Procedure: as §1

[2] = Mice oral PK @30 mg/kg (Table 3)
[3] = Mice oral PK @30 mg/kg (Table 4)

**Q.** What does the source list for `C=C(C)[C@@H]1CC[C@]2(C(=O)N3CCC[C@H]3c3ncc(-c4ccccc4)[nH]3)CC[C@]3(C)[C@H](CC[C@@H]4[C@@]5(C)CC[C@H](OC(=O)[C@H]6C[C@@H](C(=O)O)C6(C)C)C(C)(C)[C@@H]5CC[C@]43C)[C@@H]12` [Compound 14]?
**A.** AUC(0-t) [1, 2]: 171 µg·h/mL; Cmax [1, 2]: 11000 ng/mL; Tmax [1, 2]: 5 h; inhibition at 0.1 µM (HIV-1 strain 92HT599): 94%; inhibition at 1 µM (HIV-1 strain 92HT599): 100%; IC50 (HIV-1 strain 92HT599): 15.3 nM; Cytotoxicity % viability (MT2 cells): 86%; viability at 1 µM (in vitro): 82%

**Q.** With `C=C(C)[C@@H]1CC[C@]2(C(=O)N3CCC[C@H]3c3ncc(-c4cccnc4)[nH]3)CC[C@]3(C)[C@H](CC[C@@H]4[C@@]5(C)CC[C@H](OC(=O)CC(C)(C)CC(=O)O)C(C)(C)[C@@H]5CC[C@]43C)[C@@H]12` [Compound 11, 3,3-dimethyl-5-oxo-5-((1R,3aS,5aR,5bR,7aR,9S,11aR,11bR,13aR,13bR)-5a,5b,8,8,11a-pentamethyl-1-(prop-1-en-2-yl)-3a-((S)-2-(5-(pyridin-3-yl)-1H-imidazol-2-yl)pyrrolidine-1-carbonyl)icosahydro-1H-cyclopenta[a]chrysen-9-yloxy)pentanoic acid] as the compound, how does the AUC(0-t) [1, 2] read?
**A.** 59.5 µg·h/mL

**Q.** What about the Cmax [1, 2] of the same compound?
**A.** 7620 ng/mL

**Q.** And the Tmax [1, 2]?
**A.** 1.25 h

**Q.** And the inhibition at 0.1 µM (HIV-1 strain 92HT599)?
**A.** 99%

**Q.** And the inhibition at 1 µM (HIV-1 strain 92HT599)?
**A.** 100%

**Q.** What about the IC50 (HIV-1 strain 92HT599) of the same compound?
**A.** 1.51 nM

**Q.** And the Cytotoxicity % viability (MT2 cells)?
**A.** 84%

**Q.** What about the viability at 1 µM (in vitro) of the same compound?
**A.** 80%

**Q.** With `CC(C)(CC(=O)O[C@H]1CC[C@]2(C)[C@H]3CC[C@@H]4[C@H]5[C@H](C6(C)CC6)CC[C@]5(C(=O)N5CCC[C@@H]5c5nc(-c6ccccc6)no5)CC[C@@]4(C)[C@]3(C)CC[C@H]2C1(C)C)C(=O)O` [Compound 5, 2,2-dimethyl-4-oxo-4-((1R,3aS,5aR,5bR,7aR,9S,11aR,11bR,13aR,13bR)-5a,5b,8,8,11a-pentamethyl-1-(1-methylcyclopropyl)-3a-((R)-2-(3-phenyl-1,2,4-oxadiazol-5-yl)pyrrolidine-1-carbonyl)icosahydro-1H-cyclopenta[a]chrysen-9-yloxy)butanoic acid] as the compound, how does the inhibition at 0.1 µM (HIV-1 strain 92HT599) read?
**A.** 64%

**Q.** What about the inhibition at 1 µM (HIV-1 strain 92HT599) of the same compound?
**A.** 99%

**Q.** What about the Cytotoxicity % viability (MT2 cells) of the same compound?
**A.** 100%

**Q.** What about the viability at 1 µM (in vitro) of the same compound?
**A.** 91%

**Q.** Which AUC(0-t) [1, 2] does the source give for `C=C(C)[C@@H]1CC[C@]2(C(=O)N3CCC[C@H]3c3ncc(-c4cccnc4)[nH]3)CC[C@]3(C)[C@H](CC[C@@H]4[C@@]5(C)CC[C@H](OC(=O)CC(C)(C)C(=O)O)C(C)(C)[C@@H]5CC[C@]43C)[C@@H]12` [Compound 10, 2,2-dimethyl-4-oxo-4-((1R,3aS,5aR,5bR,7aR,9S,11aR,11bR,13aR,13bR)-5a,5b,8,8,11a-pentamethyl-1-(prop-1-en-2-yl)-3a-((S)-2-(5-(pyridin-3-yl)-1H-imidazol-2-yl)pyrrolidine-1-carbonyl)icosahydro-1H-cyclopenta[a]chrysen-9-yloxy)butanoic acid] here?
**A.** 40.5 µg·h/mL

**Q.** What about the Cmax [1, 2] of the same compound?
**A.** 5840 ng/mL

**Q.** What about the Tmax [1, 2] of the same compound?
**A.** 1.13 h

**Q.** And the inhibition at 0.1 µM (HIV-1 strain 92HT599)?
**A.** 100%

**Q.** And the inhibition at 1 µM (HIV-1 strain 92HT599)?
**A.** 100%

**Q.** What about the IC50 (HIV-1 strain 92HT599) of the same compound?
**A.** 0.8 nM

**Q.** And the Cytotoxicity % viability (MT2 cells)?
**A.** 81%

**Q.** And the viability at 1 µM (in vitro)?
**A.** 82%

**Q.** What does the source list for `C=C(C)[C@@H]1CC[C@]2(C(=O)N3CCC[C@H]3c3ncc(-c4ccc(F)cc4)[nH]3)CC[C@]3(C)[C@H](CC[C@@H]4[C@@]5(C)CC[C@H](OC(=O)CC(C)(C)C(=O)O)C(C)(C)[C@@H]5CC[C@]43C)[C@@H]12` [Compound 34, 4-(((1R,3aS,5aR,5bR,7aR,9S,11aR,11bR,13aR,13bR)-3a-((S)-2-(5-(4-fluorophenyl)-1H-imidazol-2-yl)pyrrolidine-1-carbonyl)-5a,5b,8,8,11a-pentamethyl-1-(prop-1-en-2-yl)icosahydro-1H-cyclopenta[a]chrysen-9-yl)oxy)-2,2-dimethyl-4-oxobutanoic acid]?
**A.** AUC(0-inf) [1, 3]: 263 µg·h/mL; AUC(0-t) [1, 3]: 224 µg·h/mL; Cmax [1, 3]: 13300 ng/mL; half-life [1, 3]: 16.1 h; IC50 (HIV-1 strain 92HT599): 17 nM

**Q.** What does the source list for `CC1(C)C(C(=O)O)CC1C(=O)O[C@H]1CC[C@]2(C)[C@H]3CC[C@@H]4[C@H]5[C@H](C6(C)CC6)CC[C@]5(C(=O)N5CCC[C@H]5c5ncc(-c6ccc(F)cc6)[nH]5)CC[C@@]4(C)[C@]3(C)CC[C@H]2C1(C)C` (stereo partly drawn) [Compound 42, 3-((((1R,3aS,5aR,5bR,7aR,9S,11aR,11bR,13aR,13bR)-3a-((S)-2-(5-(4-fluorophenyl)-1H-imidazol-2-yl)pyrrolidine-1-carbonyl)-5a,5b,8,8,11a-pentamethyl-1-(1-methylcyclopropyl)icosahydro-1H-cyclopenta[a]chrysen-9-yl)oxy)carbonyl)-2,2-dimethylcyclobutane-1-carboxylic acid]?
**A.** AUC(0-inf) [1, 3]: 448 µg·h/mL; AUC(0-t) [1, 3]: 254 µg·h/mL; Cmax [1, 3]: 9300 ng/mL; half-life [1, 3]: 37.3 h; IC50 (HIV-1 strain 92HT599): < 0.3 nM

**Q.** With `CC(C)(CC(=O)O[C@H]1CC[C@]2(C)[C@H]3CC[C@@H]4[C@H]5[C@H](C6(C)CC6)CC[C@]5(C(=O)N5CCC[C@H]5c5ncc(-c6cccnc6)[nH]5)CC[C@@]4(C)[C@]3(C)CC[C@H]2C1(C)C)C(=O)O` [Compound 30, 2,2-dimethyl-4-oxo-4-(((1R,3aS,5aR,5bR,7aR,9S,11aR,11bR,13aR,13bR)-5a,5b,8,8,11a-pentamethyl-1-(1-methylcyclopropyl)-3a-((S)-2-(5-(pyridin-3-yl)-1H-imidazol-2-yl)pyrrolidine-1-carbonyl)icosahydro-1H-cyclopenta[a]chrysen-9-yl)oxy)butanoic acid] as the compound, how does the AUC(0-inf) [1, 3] read?
**A.** 57.8 µg·h/mL

**Q.** And the AUC(0-t) [1, 3]?
**A.** 54.6 µg·h/mL

**Q.** And the Cmax [1, 3]?
**A.** 6400 ng/mL

**Q.** And the half-life [1, 3]?
**A.** 1.7 h

**Q.** And the IC50 (HIV-1 strain 92HT599)?
**A.** 3.83 nM

**Q.** Which results are given for `CC(C)(CC(=O)O[C@H]1CC[C@]2(C)[C@H]3CC[C@@H]4[C@H]5[C@H](C6(C)CC6)CC[C@]5(C(=O)N5CCC[C@H]5c5ncc(-c6ccccc6)[nH]5)CC[C@@]4(C)[C@]3(C)CC[C@H]2C1(C)C)C(=O)O` [Compound 12, 2,2-dimethyl-4-oxo-4-((1R,3aS,5aR,5bR,7aR,9S,11aR,11bR,13aR,13bR)-5a,5b,8,8,11a-pentamethyl-1-(1-methylcyclopropyl)-3a-((S)-2-(5-phenyl-1H-imidazol-2-yl)pyrrolidine-1-carbonyl)icosahydro-1H-cyclopenta[a]chrysen-9-yloxy)butanoic acid]?
**A.** AUC(0-t) [1, 2]: 69.3 µg·h/mL; Cmax [1, 2]: 7260 ng/mL; Tmax [1, 2]: 3 h; inhibition at 0.1 µM (HIV-1 strain 92HT599): 100%; inhibition at 1 µM (HIV-1 strain 92HT599): 100%; IC50 (HIV-1 strain 92HT599): 4.59 nM; viability at 1 µM (in vitro): 85%

**Q.** For `C=C(C)[C@@H]1CC[C@]2(C(=O)N3CCC[C@H]3c3ncc(-c4ccc(F)cc4)[nH]3)CC[C@]3(C)[C@H](CC[C@@H]4[C@@]5(C)CC[C@H](OC(=O)C6CC(C(=O)O)C6(C)C)C(C)(C)[C@@H]5CC[C@]43C)[C@@H]12` (stereo partly drawn) [Compound 35, 3-((((1R,3aS,5aR,5bR,7aR,9S,11aR,11bR,13aR,13bR)-3a-((S)-2-(5-(4-fluorophenyl)-1H-imidazol-2-yl)pyrrolidine-1-carbonyl)-5a,5b,8,8,11a-pentamethyl-1-(prop-1-en-2-yl)icosahydro-1H-cyclopenta[a]chrysen-9-yl)oxy)carbonyl)-2,2-dimethylcyclobutane-1-carboxylic acid], which AUC(0-inf) [1, 3] is on record?
**A.** 655 µg·h/mL

**Q.** What about the AUC(0-t) [1, 3] of the same compound?
**A.** 410 µg·h/mL

**Q.** What about the Cmax [1, 3] of the same compound?
**A.** 16000 ng/mL

**Q.** What about the half-life [1, 3] of the same compound?
**A.** 34.2 h

**Q.** What about the IC50 (HIV-1 strain 92HT599) of the same compound?
**A.** 74 nM

**Q.** Which inhibition at 0.1 µM (HIV-1 strain 92HT599) does the source give for `C=C(C)[C@@H]1CC[C@]2(C(=O)N3CCC[C@@H]3c3nc(-c4ccccc4)no3)CC[C@]3(C)[C@H](CC[C@@H]4[C@@]5(C)CC[C@H](OC(=O)CC(C)(C)CC(=O)O)C(C)(C)[C@@H]5CC[C@]43C)[C@@H]12` [Compound 2, 3,3-dimethyl-5-oxo-5-((1R,3aS,5aR,5bR,7aR,9S,11aR,11bR,13aR,13bR)-5a,5b,8,8,11a-pentamethyl-3a-((R)-2-(3-phenyl-1,2,4-oxadiazol-5-yl)pyrrolidine-1-carbonyl)-1-(prop-1-en-2-yl)icosahydro-1H-cyclopenta[a]chrysen-9-yloxy)pentanoic acid] here?
**A.** 30%

**Q.** And the inhibition at 1 µM (HIV-1 strain 92HT599)?
**A.** 90%

**Q.** And the Cytotoxicity % viability (MT2 cells)?
**A.** 92%

**Q.** And the viability at 1 µM (in vitro)?
**A.** 90%

**Q.** What does the source list for `CC(C)(CC(=O)O[C@H]1CC[C@]2(C)[C@H]3CC[C@@H]4[C@H]5[C@H](C6(C)CC6)CC[C@]5(C(=O)N5CCC[C@H]5c5ncc(-c6cccs6)[nH]5)CC[C@@]4(C)[C@]3(C)CC[C@H]2C1(C)C)C(=O)O` [Compound 38]?
**A.** AUC(0-inf) [1, 3]: 119 µg·h/mL; AUC(0-t) [1, 3]: 110 µg·h/mL; Cmax [1, 3]: 7000 ng/mL; half-life [1, 3]: 12.3 h; IC50 (HIV-1 strain 92HT599): 8.4 nM
